Patent US8999960B2, “Oxidized thiophospholipid compounds and uses thereof” (Vascular Biogenics Ltd., priority 2008, dated 2015)
Several values for one entry are separate records, joined by “and”; a condition that tells them apart may be missing. Equal values may be shown once.

How the values were obtained:
[1] = test system: IL12/23p40 production by peptidoglycan-activated BMDCs; assay: In vitro IL12/23p40 assay (ELISA); format: cell-based, mouse; conditions: 1 to 20 μg/ml added for 1 hour, then 24 hours with 10 μg/ml peptidoglycan (FIG. 2)
Protocol: Bone marrow derived cells (BMDCs) were obtained from the femur and tibia of female C57BL mice. Bone-marrow was flushed out femur and tibia with cold RPMI-1640. A cell suspension was prepared, and erythrocytes were removed using red blood cell (RBC) lysis buffer. […] Cells were then washed, resuspended in the same buffer, and depleted from B and T cells on a Midi-Macs separation unit through a LD or LS column (Miltenyi Biotech). The cells were prepared freshly for each experiment.
The depleted bone marrow cells were counted, washed and seeded at a concentration of 10^6 cells/ml in medium containing RPMI-1640, L-glutamine, β-mercaptoethanol, 10% fetal calf serum (FCS), antibiotics (penicillin/streptomycin) and 20 ng/ml of mouse GM-CSF (granulocyte-macrophage colony-stimulating factor). Medium was replaced every other day. On days 5-6 post culturing, cells were collected, counted and seeded at a concentration of 10^6 cells/ml in the above medium. CI-211 was then added for 1 hour. The cells were activated for IL12/23p40 production by incubation for 24 hours with 10 μg/ml peptidoglycan (PGN). Cytokine production from the supernatant was measured by ELISA. Activated cells without CI-211 were used as the control.

[2] = test system: phosphotyrosine (p-Tyr) in thioglycollate stimulated mouse macrophages; assay: Tyrosine phosphorylation assay (Western blot, anti-phosphotyrosine antibody); format: cell-based; conditions: 20 μg/ml, 10 minutes, Western blot (FIG. 1)
Protocol: Thioglycollate stimulated mouse macrophages were treated for 10 minutes with 20 μg/ml of the tested compound in phosphate buffered saline (PBS) with 1% ethanol. Treatment with either 20 μg/ml of phosphatidylcholine or solvent (PBS with 1% ethanol) was used as a negative control. Treatment with 20 μg/ml CI-201 (1-hexadecyl-2-(4′-carboxy)butyl-sn-glycero-3-phosphothiocholine) was used as a positive control.
Proteins with phosphorylated tyrosine were then observed by Western blot, using a monoclonal anti-phosphotyrosine antibody. Western blotting for ERK1/2 was performed as a control for protein loading.

[3] = test system: Thioglycollate-elicited mouse peritoneal macrophages; assay: In vitro toxicity assay (crystal violet staining, cell numbers); format: cell-based; conditions: for Macrophage survival rate: 24 hours incubation, normalized to vehicle, mean ± SD, one of three experiments; for LD50: mouse peritoneal macrophages, 24 hours
Protocol: Thioglycollate-elicited mouse peritoneal macrophages were washed, counted and seeded (5×10^5 cells per well in 24-well plates) in triplicate wells in medium containing RPMI-1640, L-glutamine, 10% fetal calf serum (FCS) and antibiotics (penicillin/streptomycin). After a recovery period of 24 hours, the tested compound (or controls) was added to the cell medium at doses of 2, 10, 20, 50, 100 or 150 μg/ml, keeping the added volume equal in all treatments by complementing the volume with solvent.
Following addition of the compounds, the cells were incubated for an additional 24 hours, after which the cells were washed, fixed with a solution of 10% methanol/10% acetic acid and stained with crystal violet (0.4% in 20% ethanol). Cell numbers were measured by determining optical density at 595 nm. Cells incubated with vehicle (PBS with 1% ethanol) were used as a control, to which cell numbers in treated samples were normalized. Each experiment was performed three times.

[4] = test system: Thioglycollate-elicited mouse peritoneal macrophages; assay: as above; format: cell-based; conditions: 1, 2.5, 5, 10 or 20 μg/ml

Q: What does the source list for “1-hexadecyl-2-(4-carboxy)butyl-sn-glycero-3-thiophosphorylcholine [CI-211]”?
A: IL12/23p40 secretion [1]: decreased; tyrosine phosphorylation levels [2]: reduced; Macrophage survival rate ([3]; 2 μg/ml): 124.7 ± 11.4% and 113.2 ± 7% and 90.4 ± 22.4%; Macrophage survival rate ([3]; 10 μg/ml): 111.6 ± 28.8% and 118.4 ± 4.2% and 127.9 ± 11.5%; LD50 [3]: above 100 μg/ml and > 167 μM; toxicity at the concentrations used in the IL12/23p40 assay [4]: non-toxic

Q: How did the tyrosine phosphorylation levels [2] turn out when `CCCCCCCCCCCCCCCCOC[C@H](COP(=O)([O-])OCC[N+](C)(C)C)OCCCCC(=O)O` [CI-201, 1-hexadecyl 2 (4 carboxy)butyl-sn-glycero-3-phosphocholine, reference compound] was run?
A: reduced

Q: Which results are given for `CCCCCCCCCCCCCCCCOCC(COP(O)(=S)OCCN)OCCCCC(=O)O` (stereo not drawn) [CI-212, 1-hexadecyl-2-(4-carboxy)butyl-sn-glycero-3-O-thiophosphorylethanolamine]?
A: tyrosine phosphorylation levels [2]: reduced; Macrophage survival rate ([3]; 2 μg/ml): 98.7 ± 10.3% and 77.5 ± 5.5% and 80.8 ± 31%; Macrophage survival rate ([3]; 20 μg/ml): 90.6 ± 21.4% and 75.6 ± 9.5% and 97.5 ± 36.4%; Macrophage survival rate ([3]; 50 μg/ml): 71.4 ± 11.4% and 55.1 ± 18.9% and 97.1 ± 48.1%; LD50 [3]: above 50 μg/ml and > 90 μM
